Assays:
Assay type in all cases: cell-based
[1] = test system: iPSCs expressing the HSV-TK-PSMA fusion; assay: ganciclovir killing of iPSCs transfected with HSV-TK-PSMA fusion (p1499), cell confluency by imaging; details: 1 μM ganciclovir
Description: (§1) The ability to induce cell death in cells expressing the HSV-TK-PSMA fusion or HSV-TK alone was next tested. […] The resulting plasmid (p1474; shown in FIG. 4) was sequenced and grown up for purification using the Qiagen maxi-prep kit. Next, iPSCs were transfected with the p1499 or p1474 plasmids. Transfected and untransfected cells were plated into 6 well dishes (2×10^5 cells/well) and treated with and without 1 μM ganciclovir and imaged at 24 and 48 hours to monitor cell growth. […] It will be appreciated by those skilled in the art that changes could be made to the embodiments described above without departing from the broad inventive concept thereof. It is understood, therefore, that this invention is not limited to the particular embodiments disclosed, but it is intended to cover modifications within the spirit and scope of the present invention as defined by the present description.

untransfected iPSCs = assay: ganciclovir treatment of untransfected iPSCs (WT control), cell confluency by imaging; details: 1 μM ganciclovir
Description: as §1

[2] = test system: HSV-TK (A168H)-T2A-PSMA engineered iPSCs; assay: ganciclovir killing of HSV-TK (A168H)-T2A-PSMA engineered iPSCs, visual inspection; details: 1 uM ganciclovir, 60 hours
Source text: (§2) FIGS. 6A-6B show results from cells transfected with a HSV-TK […]-T2A-PSMA transgene.

[3] = test system: wild-type (WT; un-engineered) iPSCs; assay: ganciclovir treatment of wild-type (un-engineered) iPSCs, visual inspection; details: increasing concentrations of ganciclovir, 60 hours
Source text: as §2

[4] = test system: iPSCs expressing HSV-TK alone; assay: ganciclovir killing of iPSCs transfected with HSV-TK alone (p1474), cell confluency by imaging; details: 1 μM ganciclovir, 24 and 48 hours
Description: as §1

Nc1nc(O)c2ncn(COC(CO)CO)c2n1 [ganciclovir]
confluency compared with untreated cells ([1]; 24 and 48 hours): reduced confluency
cell confluency ([1]; 48 hours, iPSCs expressing HSV-TK-PSMA): 6%
effect on cell growth (untransfected iPSCs; 24 hours and 48 hours): no effect
cell confluency (untransfected iPSCs; 48 hours, WT cells): 73%
killing [2]: ~100%
effect on un-engineered cells [3]: unaffected
confluency compared with untreated cells [4]: reduced confluency
